Columns and labels:
[1] = MTT cytotoxicity assay, non-cancer colon cells; assay type: cell-based; settings: human, NCM460 colonic epithelial cells (non-cancer cell line), n = 3, non-cancer cell line, read-out: CC50 ± SD NUM460
Procedure: Besides, the MTT assay was performed on a non-cancer line NCM460 to assess the cytotoxicity of the test compound to normal colon cells.
(§1) MCF-7 (human breast cell line), HeLa (human cervical cell line), A549 (human lung cell line), HepG2 (human liver cell line), SW620 (human colorectal cell line) and a non-cancer cell line, NCM460 (Human colonic epithelial cells) were preserved at the State Key Laboratory of Pharmaceutical Biotechnology, Nanjing University (Nanjing, China).
(§2) The antiproliferative activity of the synthetic compounds against the SW620, MCF-7, HeLa, A549, HepG2, and NUM460 cell lines was evaluated by a colorimetric assay based on a modified standard (MTT). […] Thereafter, MTT (5 mg/mL in PBS) was added to each well and incubated for 4 h. 150 μL of DMSO was added to each well and shaken with a shaker. The absorbance (OD 570 nm) was read at 630 nm on an ELISA reader (ELx800, BioTek, montpelier, VT, USA). IC50 values for the compounds were calculated by comparison to DMSO treated control wells. Three replicate wells were used for each drug concentration. Each assay was performed three times.

[2] = biological target: T1, COX-2 (Homo sapiens, UniProt P35354); assay: COX-2 inhibition assay (COX-2 ELISA kit); assay type: biochemical; settings: for Selectivity Index (SI) (COX-1 IC50/COX-2 IC50): in vitro COX-2 selectivity index; for IC50: mean of four determinations, read-out: IC50 ± SD COX-2
T1 construct: purchased Cayman Chemical 701180
T1 sequence (P35354 18-604): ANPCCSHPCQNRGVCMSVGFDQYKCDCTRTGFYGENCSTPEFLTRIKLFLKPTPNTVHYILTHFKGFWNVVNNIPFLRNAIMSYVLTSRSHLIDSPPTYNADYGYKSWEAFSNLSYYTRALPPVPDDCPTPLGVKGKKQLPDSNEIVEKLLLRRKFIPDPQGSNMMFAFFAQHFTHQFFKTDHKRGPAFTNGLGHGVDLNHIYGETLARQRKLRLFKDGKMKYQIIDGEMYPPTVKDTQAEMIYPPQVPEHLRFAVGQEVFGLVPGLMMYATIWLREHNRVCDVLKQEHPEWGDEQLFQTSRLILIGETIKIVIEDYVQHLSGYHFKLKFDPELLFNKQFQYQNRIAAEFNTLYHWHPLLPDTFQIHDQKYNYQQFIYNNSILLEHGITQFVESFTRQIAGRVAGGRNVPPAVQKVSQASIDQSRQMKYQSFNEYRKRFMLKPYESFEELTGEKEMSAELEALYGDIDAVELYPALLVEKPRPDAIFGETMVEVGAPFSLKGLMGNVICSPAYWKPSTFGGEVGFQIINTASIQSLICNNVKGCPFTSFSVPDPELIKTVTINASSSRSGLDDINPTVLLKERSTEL
Procedure: (§3) 3-(4,5-Dimethylthiazol-2-yl)-2,5-diphenyltetrazolium (MTT) were purchased from Beyotime Institute of Biotechnology (Haimen, China). Annexcin V-FITC cell apoptosis assay kit (catalog No.BA11100) was purchased from BIO-BOX (Nanjing, China). Fibronectin (#F1056) and laminin (#L2020) were purchased from Sigma-Aldrich (St. Louis, MO, USA).
(§4) Then 1 M HCl was added to the reaction mixture to stop the reaction, and one-tenth of the volume of saturated stannous chloride (50 mg/mL) was added. The reaction mixture was incubated at room temperature for 5 min, and PGF2 and PGH2 were produced.

[3] = test system: SW620 cells; assay: MTT antiproliferation assay, SW620; assay type: cell-based; settings: Homo sapiens, SW-620, 48 h, n = 3, read-out: IC50 ± SD SW620
Procedure: as §1, §2

[4] = test system: MCF-7; assay: MTT antiproliferation assay, MCF-7; assay type: cell-based; settings: Homo sapiens, MCF7, 48 h, n = 3, read-out: IC50 ± SD MCF-7
Procedure: as §1, §2

[5] = test system: HeLa; assay: MTT antiproliferation assay, HeLa; assay type: cell-based; settings: Homo sapiens, 48 h, n = 3, read-out: IC50 ± SD HeLa
Procedure: as §1, §2

[6] = test system: HepG2; assay: MTT antiproliferation assay, HepG2; assay type: cell-based; settings: Homo sapiens, 48 h, n = 3, read-out: IC50 ± SD HepG2
Procedure: as §1, §2

[7] = test system: A549; assay: MTT antiproliferation assay, A549; assay type: cell-based; settings: Homo sapiens, 48 h, n = 3, read-out: IC50 ± SD A549
Procedure: as §1, §2

[8] = biological target: T2, COX-1 (Homo sapiens, UniProt P23219); assay: COX-1 inhibition assay (COX-1 ELISA kit); assay type: biochemical; settings: mean of four determinations; read-out: IC50 ± SD COX-1
T2 construct: purchased Cayman Chemical 701170
Procedure: as §3, §4

T2 sequence (P23219 24-599): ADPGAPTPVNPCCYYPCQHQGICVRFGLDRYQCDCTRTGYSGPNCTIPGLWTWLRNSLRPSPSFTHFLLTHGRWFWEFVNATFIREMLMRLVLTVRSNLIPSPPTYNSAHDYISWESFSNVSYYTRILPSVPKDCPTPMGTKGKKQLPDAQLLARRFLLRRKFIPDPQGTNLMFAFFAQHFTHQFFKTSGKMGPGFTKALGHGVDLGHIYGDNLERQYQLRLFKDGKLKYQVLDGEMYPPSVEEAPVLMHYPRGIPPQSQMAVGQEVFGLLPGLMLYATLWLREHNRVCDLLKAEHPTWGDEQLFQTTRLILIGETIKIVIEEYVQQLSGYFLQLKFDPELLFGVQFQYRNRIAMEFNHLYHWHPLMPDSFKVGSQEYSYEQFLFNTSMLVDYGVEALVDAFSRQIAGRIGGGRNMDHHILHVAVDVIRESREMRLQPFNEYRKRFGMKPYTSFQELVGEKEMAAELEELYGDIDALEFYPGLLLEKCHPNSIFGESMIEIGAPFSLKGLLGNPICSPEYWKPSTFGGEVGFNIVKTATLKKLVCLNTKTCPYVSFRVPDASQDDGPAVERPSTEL

Row | SMILES | CC50 at 48 h [1] | Selectivity Index (SI) (COX-1 IC50/COX-2 IC50) [2] | IC50 [2] | IC50 [3] | IC50 [4] | IC50 [5] | IC50 [6] | IC50 [7] | IC50 [8] | melting point
1 | NS(=O)(=O)c1ccc(N2N=C(c3ccccc3)CC2c2ccc3c(c2)OCO3)cc1 (stereo not drawn) [Compound 4a, 4-(5-(Benzo[d][1,3]dioxol-5-yl)-3-phenyl-4,5-dihydro-1H-pyrazol-1-yl)benzenesulfonamide] | 88.6 ± 3.96 µM | >44.44 | 1.35 ± 0.08 µM | 3.38 ± 0.27 µM | 5.77 ± 0.39 µM | 6.32 ± 0.55 µM | 7.64 ± 0.57 µM | 3.54 ± 0.19 µM | > 60 µM | 212 to 214 °C
2 | CCOc1ccc(C2=NN(c3ccc(S(N)(=O)=O)cc3)C(c3ccc4c(c3)OCO4)C2)cc1 (stereo not drawn) [Compound 4c, 4-(5-(Benzo[d][1,3]dioxol-5-yl)-3-(4-ethoxyphenyl)-4,5-dihydro-1H-pyrazol-1-yl)benzenesulfonamide] | 159 ± 11.4 µM | 10.45 | 2.02 ± 0.13 µM | 5.07 ± 0.26 µM | 8.31 ± 0.67 µM | 9.37 ± 0.9 µM | 13.7 ± 0.93 µM | 6.93 ± 0.17 µM | 21.11 ± 0.19 µM | 182 to 184 °C
3 | NS(=O)(=O)c1ccc(N2N=C(c3ccc(I)cc3)CC2c2ccc3c(c2)OCO3)cc1 (stereo not drawn) [Compound 4d, 4-(5-(Benzo[d][1,3]dioxol-5-yl)-3-(4-iodophenyl)-4,5-dihydro-1H-pyrazol-1-yl)benzenesulfonamide] | 74.5 ± 5.23 µM | 21.53 | 1.2 ± 0.05 µM | 3.04 ± 0.17 µM | 5.26 ± 0.42 µM | 5.71 ± 0.47 µM | 6.42 ± 0.25 µM | 2.86 ± 0.06 µM | 25.84 ± 0.21 µM | 212 to 214 °C
4 | Cc1cccc(C2=NN(c3ccc(S(N)(=O)=O)cc3)C(c3ccc4c(c3)OCO4)C2)c1 (stereo not drawn) [Compound 4e, 4-(5-(Benzo[d][1,3]dioxol-5-yl)-3-(m-tolyl)-4,5-dihydro-1H-pyrazol-1-yl)benzenesulfonamide] | 110 ± 7.71 µM | 19.20 | 1.55 ± 0.06 µM | 3.88 ± 0.36 µM | 6.52 ± 0.46 µM | 7.22 ± 0.65 µM | 9.44 ± 0.74 µM | 4.54 ± 0.18 µM | 29.77 ± 0.23 µM | 187 to 188 °C
5 | Cc1ccc(C2=NN(c3ccc(S(N)(=O)=O)cc3)C(c3ccc4c(c3)OCO4)C2)cc1C (stereo not drawn) [Compound 4f, 4-(5-(Benzo[d][1,3]dioxol-5-yl)-3-(3,4-dimethylphenyl)-4,5-dihydro-1H-pyrazol-1-yl)benzenesulfonamide] | 129 ± 8.96 µM | 33.61 | 1.73 ± 0.11 µM | 4.34 ± 0.33 µM | 7.21 ± 0.62 µM | 8.05 ± 0.77 µM | 11.2 ± 1.03 µM | 5.49 ± 0.44 µM | 58.14 ± 0.47 µM | 179 to 180 °C
6 | COc1cccc(C2=NN(c3ccc(S(N)(=O)=O)cc3)C(c3ccc4c(c3)OCO4)C2)c1 (stereo not drawn) [Compound 4g, 4-(5-(Benzo[d][1,3]dioxol-5-yl)-3-(3-methoxyphenyl)-4,5-dihydro-1H-pyrazol-1-yl)benzenesulfonamide] | 211 ± 18.2 µM | >18.87 | 3.18 ± 0.26 µM | 7.99 ± 0.56 µM | 12.7 ± 0.89 µM | 14.6 ± 0.96 µM | 18.2 ± 1.15 µM | 9.42 ± 0.74 µM | > 60 µM | 219 to 221 °C
7 | NS(=O)(=O)c1ccc(N2N=C(c3cccc(F)c3)CC2c2ccc3c(c2)OCO3)cc1 (stereo not drawn) [Compound 4h, 4-(5-(Benzo[d][1,3]dioxol-5-yl)-3-(3-fluorophenyl)-4,5-dihydro-1H-pyrazol-1-yl)benzenesulfonamide] | 82.8 ± 7.59 µM | 41.33 | 1.28 ± 0.07 µM | 3.24 ± 0.18 µM | 5.56 ± 0.38 µM | 6.07 ± 0.41 µM | 7.14 ± 0.66 µM | 3.26 ± 0.29 µM | 52.91 ± 0.39 µM | 192 to 193 °C
8 | Cc1ccc(C2=NN(c3ccc(S(N)(=O)=O)cc3)C(c3ccc4c(c3)OCO4)C2)c(C)c1 (stereo not drawn) [Compound 4i, 4-(5-(Benzo[d][1,3]dioxol-5-yl)-3-(2,4-dimethylphenyl)-4,5-dihydro-1H-pyrazol-1-yl)benzenesulfonamide] | 155 ± 12.7 µM | >30.30 | 1.98 ± 0.15 µM | 4.96 ± 0.38 µM | 8.14 ± 0.69 µM | 9.16 ± 0.37 µM | 13.3 ± 0.89 µM | 6.71 ± 0.57 µM | > 60 µM | 180 to 182 °C
9 | NS(=O)(=O)c1ccc(N2N=C(c3ccccc3F)CC2c2ccc3c(c2)OCO3)cc1 (stereo not drawn) [Compound 4j, 4-(5-(Benzo[d][1,3]dioxol-5-yl)-3-(2-fluorophenyl)-4,5-dihydro-1H-pyrazol-1-yl)benzenesulfonamide] | 137 ± 12.7 µM | >33.15 | 1.81 ± 0.09 µM | 4.54 ± 0.29 µM | 7.51 ± 0.57 µM | 8.41 ± 0.29 µM | 11.8 ± 0.96 µM | 5.86 ± 0.36 µM | > 60 µM | 180 to 181 °C
10 | NS(=O)(=O)c1ccc(N2N=C(c3ccccc3)CC2c2ccc3c(c2)OCCO3)cc1 (stereo not drawn) [Compound 4k, 4-(5-(2,3-Dihydrobenzo[b][1,4]dioxin-6-yl)-3-phenyl-4,5-dihydro-1H-pyrazol-1-yl)benzenesulfonamide] | 138 ± 11 µM | >32.97 | 1.82 ± 0.16 µM | 4.56 ± 0.14 µM | 7.54 ± 0.42 µM | 8.44 ± 0.48 µM | 11.9 ± 0.91 µM | 5.92 ± 0.31 µM | > 60 µM | 156 to 157 °C
11 | Cc1ccc(C2=NN(c3ccc(S(N)(=O)=O)cc3)C(c3ccc4c(c3)OCCO4)C2)cc1 (stereo not drawn) [Compound 4l, 4-(5-(2,3-Dihydrobenzo[b][1,4]dioxin-6-yl)-3-(p-tolyl)-4,5-dihydro-1H-pyrazol-1-yl)benzenesulfonamide] | 68.7 ± 5.28 µM | 46.67 | – | 2.35 ± 0.11 µM | 4.22 ± 0.16 µM | 4.46 ± 0.36 µM | 5.92 ± 0.39 µM | 2.58 ± 0.18 µM | 43.87 ± 0.37 µM | 153 to 154 °C
12 | COc1ccc(C2=NN(c3ccc(S(N)(=O)=O)cc3)C(c3ccc4c(c3)OCCO4)C2)cc1 (stereo not drawn) [Compound 4m, 4-(5-(2,3-Dihydrobenzo[b][1,4]dioxin-6-yl)-3-(4-methoxyphenyl)-4,5-dihydro-1H-pyrazol-1-yl)benzenesulfonamide] | 110 ± 7.42 µM | >39.47 | 1.52 ± 0.09 µM | 3.88 ± 0.37 µM | 6.52 ± 0.33 µM | 7.22 ± 0.19 µM | 9.44 ± 0.77 µM | 4.54 ± 0.29 µM | > 60 µM | 207 to 208 °C
13 | NS(=O)(=O)c1ccc(N2N=C(c3cccc(Cl)c3Cl)CC2c2ccc3c(c2)OCCO3)cc1 (stereo not drawn) [Compound 4x, 4-(3-(2,3-Dichlorophenyl)-5-(2,3-dihydrobenzo[b][1,4]dioxin-6-yl)-4,5-dihydro-1H-pyrazol-1-yl)benzenesulfonamide] | – | – | – | – | – | – | – | – | – | 171 to 173 °C

Reference: article PMC6539903 (Molecules, 2019)
